Values quoted from earlier work as cited in US20100137333A1, “ANTIFUNGAL COMPOSITION AND METHODS FOR USING” (priority 2006, published 2010).

Details: in vivo

Substance	dermal toxicity
Poly(vinylpyrrolidone/1-hexadecene) [PVPH]	no demonstrable dermal toxicity
poly(vinylpyrrolidone/1-eicosene) [PVPE]	no demonstrable dermal toxicity
